Results published in US20180044422A1, “TREATING SOLID TUMOR BY TARGETING DECTIN-1 SIGNALING” (New York University, priority 2016, published 2018).

Legend:
[1] = system: pancreatic oncogenesis in KC mice; assay: KC mice endogenous pancreatic tumor model; assay type: in vivo, mouse; settings: Dectin-1-/- mice, 20 mg/kg i.p. five times weekly, 8 weeks, vs vehicle
Source text: C57BL/6 (H-2Kb) mice were purchased from Jackson Labs (Bar Harbor, Me.) and bred in-house. KC and KPC mice develop pancreatic neoplasia endogenously by expressing mutant Kras alone or mutant Kras and p53, respectively, in the progenitor cells of the pancreas (Hingorani et al., Cancer Cell, 2003, 4, 437-450; Hingorani et al., Cancer Cell, 2005, 7, 469-483). Tumor progression and survival in control KC mice has been previously detailed (Daley et al., Cell, 2016, 166, 1485-1499). Dectin-1^−/− mice were crossed with KC mice to generate KC; Dectin-1^−/− animals. For orthotopic pancreatic tumor challenge, mice were administered intra-pancreatic injections of either Kras^G12D PDEC or FC1242 tumor cells derived from KPC mice. Kras^G12D PDEC and FC1242 cells were generated as previously described (Pylayeva-Gupta et al., Cancer Cell, 2012, 21, 836-847; Zambirinis et al., J Exp Med., 2015, 212, 2077-2094). […] Mice were sacrificed 3 weeks later and tumor weight recorded. […] PDEC proliferation was measured using the XTT assay according to the manufacturer's protocol (Roche, Nutley, N.J.). […]
For histological analysis, pancreatic specimens were fixed with 10% buffered formalin, dehydrated in ethanol, embedded with paraffin, and stained with H&E or Gomori's Trichrome. The fraction of preserved acinar area was calculated as previously described (Seifert et al., Nature, 2016, 532, 245-249). […]

[2] = system: Dectin-1/Galectin-9 interaction; assay: Galectin-9 immunoprecipitation with PNGase F or lactose treatment; assay type: binding; settings: PNGase F pretreatment of Dectin-1 or 100 mM lactose pre-incubation of Galectin-9; SDS-PAGE
Experimental: Dectin-1 IgG Fc (8 μg; InvivoGen) was treated with PNGase F (20 μl, ˜10,000 units; New England Biolabs) following the company's non-denaturing protocol (37° C., 24 hr). PNGase F treated and untreated Dectin-1 IgG Fc samples (4 μg; InvivoGen) were added to protein G beads (25 μl, Dynabeads Protein G; novex) and the mixtures were incubated at room temperature for 10 min. The beads were washed 2× with PBS-T (pH 7.4 with 0.02% tween). Recombinant mouse Galectin-9 (4 μg; R&D Systems) was resuspended in PBS-T or a solution of 100 mM lactose in PBS-T. Galectin-9 samples were then incubated with the Dynabead/Dectin-1 IgG Fc complex for 20 min at room temperature. The Dynabeads were then washed 3× with PBS-T and transferred to a clean tube. Galectin-9 and Dectin-1 IgG Fc were eluted in SDS-PAGE buffer (PBS with 10% BME) by heating at 98° C. for 10 min. The samples were then analyzed by SDS-PAGE and stained with Coomassie Blue.

[3] = system: bone-marrow derived macrophages (BMDM); assay: Dectin-1 expression in bone-marrow derived macrophages; assay type: cell-based, mouse; settings: cytokine added to day 8 BMDM cultures for 24h

Compound | Dectin-1 expression in BMDM [3] | other results
Oc1cc(O)cc(/C=C/c2ccc(O)c(O)c2)c1 [Piceatannol] |  | pancreatic tumor weight [1]: no effect
OC[C@H]1O[C@@H](O[C@H]2[C@H](O)[C@@H](O)C(O)O[C@@H]2CO)[C@H](O)[C@@H](O)[C@H]1O (stereo partly shown) [lactose] |  | effect on Dectin-1/Galectin-9 binding [2]: no alteration of the Dectin-1/Galectin-9 interaction
TGF-3: cytokine added to BMDM cultures; printed TGF-β in methods | did not influence Dectin-1 expression | 
TNF-α | did not influence Dectin-1 expression | 
